Data on three substances can be found in paper PMC10538376 (Journal of the American Chemical Society, 2023).

Experiment [1] relates to VanA vancomycin-resistant E. faecium (VRE). Description: In vitro antimicrobial activity, VanA VRE. Type of experiment: cell-based. The conditions noted are these: comparator named in value.
Experiment [2] deals with Ac2-L-Lys-D-Ala-D-Lac (33). Briefly: Model ligand binding, ligand of vancomycin-resistant organisms.
For experiment [3], the system named is methicillin-susceptible S. aureus (MSSA). Briefly: In vitro antimicrobial activity, MSSA. Type of experiment: cell-based.
For experiment [4], the system named is methicillin-resistant S. aureus (MRSA). Briefly: In vitro antimicrobial activity, MRSA. Type of experiment: cell-based.
Where [5] appears, read: 30 vs CBP-vancomycin, 31 vs G3,CBP-vancomycin.

As for 2e,6e-dichlorovancomycin [Compound 1], the “antimicrobial activity against VanA VRE, result in words” value (“antimicrobial activity against VanA VRE” below) in experiment [1] was “inactive”. In addition, in experiment [2], the “Ka, binding to model ligand 33” value is less than 470 M⁻¹ and the “fold less effective binding of 33 than of Ac2-L-Lys-D-Ala-D-Ala” value stood at 1000 fold.

As for CBP-tetrachlorovancomycin [Compound 30], the “fold improvement of activity relative to 1” value in experiment [3] and in experiment [4] was 50 fold each time. Further, the “activity compared with the corresponding vancomycin derivative, in words” value in experiment [3] (setting [5]) and in experiment [4] (setting [5]) was “indistinguishable” each time. The “antimicrobial activity against VanA VRE” value in experiment [1] is reported as “comparable to CBP-vancomycin”.

For vancomycin [reference compound], the “antimicrobial activity against VanA VRE” value in experiment [1] is “inactive”.
